ChEMBL document CHEMBL1142388, “Carbonic anhydrase activators: activation of the human tumor-associated isozymes IX and XII with amino acids and amines” (Bioorg Med Chem, 2008)

How the values were obtained:
[1] = target: Carbonic anhydrase 9 (Homo sapiens) (UniProt Q16790); assay: Activation of human recombinant CA9 catalytic domain by stopped-flow CO2 hydration method
[2] = target: Carbonic anhydrase 12 (Homo sapiens) (UniProt O43570); assay: Activation of human recombinant CA12 catalytic domain by stopped-flow CO2 hydration method
Carbonic anhydrase 12 (Homo sapiens), sequence (O43570 whole entry, the tested form may be a part): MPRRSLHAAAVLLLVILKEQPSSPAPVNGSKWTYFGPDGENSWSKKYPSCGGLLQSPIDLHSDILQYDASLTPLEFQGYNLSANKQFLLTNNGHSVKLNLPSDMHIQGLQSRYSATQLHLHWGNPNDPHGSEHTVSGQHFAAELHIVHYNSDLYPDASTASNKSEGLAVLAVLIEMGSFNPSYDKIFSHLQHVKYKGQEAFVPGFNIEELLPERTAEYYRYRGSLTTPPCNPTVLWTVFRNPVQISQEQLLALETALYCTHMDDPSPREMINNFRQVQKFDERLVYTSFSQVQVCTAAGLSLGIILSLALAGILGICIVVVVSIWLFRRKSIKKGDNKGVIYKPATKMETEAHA

Compound	KA [1]	KA [2]
CNCC(O)c1ccc(O)c(O)c1 (single isomer, unassigned)	0.87 µM	0.41 µM
NCCc1c[nH]c2ccc(O)cc12	33.1 µM	0.3 µM
N[C@@H](Cc1ccc(O)cc1)C(=O)O	25.3 µM	25.8 µM
N[C@@H](Cc1c[nH]cn1)C(=O)O	9.71 µM	37.5 µM
NCCc1ccc(O)c(O)c1	0.92 µM	0.67 µM
N[C@@H](Cc1c[nH]c2ccccc12)C(=O)O	37.5 µM	26 µM
N[C@H](Cc1ccc(O)c(O)c1)C(=O)O	54.7 µM	0.89 µM
NCCN1CCOCC1	0.43 µM	0.24 µM
N[C@H](Cc1c[nH]cn1)C(=O)O	12.5 µM	24.7 µM
Nc1ccc(C[C@H](N)C(=O)O)cc1	48.7 µM	1.09 µM
NCCN1CCNCC1	0.009 µM	48.3 µM
NCCc1c[nH]cn1	35.1 µM	27.9 µM
N[C@H](Cc1c[nH]c2ccccc12)C(=O)O	43.6 µM	28.1 µM
N[C@@H](Cc1ccc(O)c(O)c1)C(=O)O	51.3 µM	1.67 µM
NCCc1ccccn1	0.013 µM	0.69 µM
NCc1ccccn1	1.07 µM	41.5 µM
